From PubChem BioAssay (NCI)
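Briefly, cells in 96-well plates were exposed to five compound concentrations for 48 h, and endpoints were estimated by linear interpolation. GI50 = concentration required for 50% inhibition of growth. TGI marks complete inhibition of growth.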

Columns and labels:
Experiment in all cases: NCI tumour cell line growth inhibition, 48 h
UO-31 renal = system: UO-31 renal
SF-539 CNS = system: SF-539 CNS
OVCAR-3 ovarian = system: OVCAR-3 ovarian
MCF7 breast = system: MCF7 breast
OVCAR-8 ovarian = system: OVCAR-8 ovarian
NCI-H23 lung = system: NCI-H23 lung
NCI-H460 lung = system: NCI-H460 lung
MALME-3M melanoma = system: MALME-3M melanoma
HOP-92 NSCLC = system: HOP-92 NSCLC
HS 578T breast = system: HS 578T breast
SF-295 CNS = system: SF-295 CNS
COLO 205 colon = system: COLO 205 colon
HOP-62 NSCLC = system: HOP-62 NSCLC
K-562 leukemia = system: K-562 leukemia
MDA-MB-231 breast = system: MDA-MB-231 breast
HCC-2998 colon = system: HCC-2998 colon
NCI-H522 lung = system: NCI-H522 lung
SN12C renal = system: SN12C renal
U251 CNS = system: U251 CNS
HT29 colon = system: HT29 colon
ACHN renal = system: ACHN renal
SF-268 CNS = system: SF-268 CNS
SNB-19 CNS = system: SNB-19 CNS
NCI-H226 lung = system: NCI-H226 lung
HCT-15 colon = system: HCT-15 colon
NCI/ADR-RES ovarian = system: NCI/ADR-RES ovarian
OVCAR-4 ovarian = system: OVCAR-4 ovarian
EKVX NSCLC = system: EKVX NSCLC
UACC-257 melanoma = system: UACC-257 melanoma
SW-620 colon = system: SW-620 colon
MDA-MB-435 = system: MDA-MB-435
SK-MEL-2 melanoma = system: SK-MEL-2 melanoma
KM12 colon = system: KM12 colon
SK-MEL-28 melanoma = system: SK-MEL-28 melanoma
HL-60(TB) leukemia = system: HL-60(TB) leukemia
TK-10 renal = system: TK-10 renal
HCT-116 colon = system: HCT-116 colon
CAKI-1 renal = system: CAKI-1 renal
OVCAR-5 ovarian = system: OVCAR-5 ovarian
A498 renal = system: A498 renal
UACC-62 melanoma = system: UACC-62 melanoma
SK-OV-3 ovarian = system: SK-OV-3 ovarian
PC-3 prostate = system: PC-3 prostate
RPMI-8226 leukemia = system: RPMI-8226 leukemia
M14 melanoma = system: M14 melanoma
T-47D breast = system: T-47D breast
786-0 renal = system: 786-0 renal
MOLT-4 leukemia = system: MOLT-4 leukemia
IGROV1 ovarian = system: IGROV1 ovarian
BT-549 breast = system: BT-549 breast
RXF 393 renal = system: RXF 393 renal
LOX IMVI melanoma = system: LOX IMVI melanoma
DU-145 prostate = system: DU-145 prostate
SNB-75 CNS = system: SNB-75 CNS
SK-MEL-5 melanoma = system: SK-MEL-5 melanoma
SR leukemia = system: SR leukemia

## COc1ccc(C[C@H](N)C(=O)N[C@@H]2[C@@H](CO)OC(n3cnc4c(N(C)C)ncnc43)[C@@H]2O)cc1 (stereo not given in full)
UO-31 renal
  GI50: 1.56 µM
  TGI: 6.57 µM
SF-539 CNS
  GI50: 0.435 µM
  TGI: 1.95 µM
OVCAR-3 ovarian
  TGI: 0.535 µM
MCF7 breast
  GI50: 0.152 µM
  TGI: 0.621 µM
OVCAR-8 ovarian
  GI50: 0.276 µM
  TGI: 1.13 µM
NCI-H23 lung
  GI50: 0.553 µM
  TGI: 1.82 µM
NCI-H460 lung
  TGI: 0.889 µM
MALME-3M melanoma
  GI50: 0.637 µM
  TGI: 1.39 µM
HOP-92 NSCLC
  GI50: 0.12 µM
  TGI: 0.51 µM
HS 578T breast
  GI50: 0.304 µM
  TGI: 2.11 µM
SF-295 CNS
  GI50: 0.655 µM
  TGI: 2.21 µM
COLO 205 colon
  GI50: 0.218 µM
  TGI: 0.756 µM
HOP-62 NSCLC
  TGI: 1.1 µM
K-562 leukemia
  GI50: 0.293 µM
  TGI: 1.46 µM
MDA-MB-231 breast
  GI50: 0.466 µM
  TGI: 1.22 µM
HCC-2998 colon
  GI50: 0.651 µM
  TGI: 1.31 µM
NCI-H522 lung
  GI50: 0.126 µM
  TGI: 0.493 µM
SN12C renal
  TGI: 1.31 µM
U251 CNS
  GI50: 0.136 µM
  TGI: 0.507 µM
HT29 colon
  TGI: 1.38 µM
ACHN renal
  TGI: 3.19 µM
SF-268 CNS
  TGI: 1.18 µM
SNB-19 CNS
  GI50: 0.339 µM
  TGI: 1.71 µM
NCI-H226 lung
  GI50: 0.497 µM
  TGI: 1.27 µM
HCT-15 colon
  GI50: 6.63 µM
  TGI: 29.9 µM
NCI/ADR-RES ovarian
  GI50: 42.7 µM
  TGI: 50 µM
OVCAR-4 ovarian
  GI50: 0.194 µM
  TGI: 0.926 µM
EKVX NSCLC
  GI50: 0.614 µM
  TGI: 2.55 µM
UACC-257 melanoma
  GI50: 0.321 µM
  TGI: 1.08 µM
SW-620 colon
  TGI: 0.792 µM
MDA-MB-435
  GI50: 0.214 µM
  TGI: 0.809 µM
SK-MEL-2 melanoma
  TGI: 1.23 µM
KM12 colon
  GI50: 0.363 µM
  TGI: 1.08 µM
SK-MEL-28 melanoma
  GI50: 0.479 µM
  TGI: 1.13 µM
HL-60(TB) leukemia
  GI50: 0.454 µM
  TGI: 1.7 µM
TK-10 renal
  TGI: 1.38 µM
HCT-116 colon
  GI50: 0.152 µM
  TGI: 0.628 µM
CAKI-1 renal
  GI50: 4.44 µM
  TGI: 16.6 µM
OVCAR-5 ovarian
  GI50: 1.14 µM
  TGI: 2.94 µM
A498 renal
  GI50: 0.189 µM
  TGI: 1.09 µM
UACC-62 melanoma
  GI50: 0.404 µM
  TGI: 1.06 µM
SK-OV-3 ovarian
  TGI: 1.5 µM
PC-3 prostate
  GI50: 0.311 µM
  TGI: 1.73 µM
RPMI-8226 leukemia
  GI50: 0.292 µM
  TGI: 2.04 µM
M14 melanoma
  GI50: 0.647 µM
  TGI: 1.4 µM
T-47D breast
  GI50: 0.137 µM
  TGI: 0.565 µM
786-0 renal
  TGI: 1.24 µM
MOLT-4 leukemia
  GI50: 0.275 µM
  TGI: 1.77 µM
IGROV1 ovarian
  GI50: 0.539 µM
  TGI: 1.73 µM
BT-549 breast
  GI50: 0.588 µM
  TGI: 1.83 µM
RXF 393 renal
  GI50: 0.216 µM
  TGI: 0.831 µM
LOX IMVI melanoma
  GI50: 0.202 µM
  TGI: 0.839 µM
DU-145 prostate
  GI50: 0.458 µM
  TGI: 2.53 µM
SNB-75 CNS
  GI50: 0.143 µM
  TGI: 1.23 µM
SK-MEL-5 melanoma
  GI50: 0.287 µM
  TGI: 0.914 µM
SR leukemia
  GI50: 0.17 µM
  TGI: 1.32 µM
